Data reported in patent US12410148B2, “Antibody drug conjugates” (Pharma Mar, S.A., priority 2013, dated 2025).
In brackets after ≈: the same amount, converted by molar mass. Several values for one entry are separate records, joined by “and”; a condition that tells them apart may be missing. Identical values can stand only once. Like-named read-outs stand apart in the source and are kept apart here.

Experiments:
[1] = system: Karpas-299, U937, Raji and RPMI-8226 cells; assay: In vitro cytotoxicity, whole CD4 cell panel; conditions: for IC50: Homo sapiens
Text: (§1) All tumor cell lines used in this study were obtained from the American Type Culture Collection (ATCC), unless otherwise indicated; BT-474 (ATCC HTB-20, Breast Ductal Carcinoma), SK-BR-3 (ATCC HTB-30, Breast Adenocarcinoma) and HCC-1954 (ATCC CRL-2338, Breast Ductal Carcinoma), all HER2+; MDA-MB-231 (ATCC HTB-26, Breast Adenocarcinoma) and MCF-7 (ATCC HTB-22 Breast Adenocarcinoma, pleural effusion), all HER2-; SK-OV-3 (ATCC HTB-77, Ovary Adenocarcinoma), HER2+; NB-4 (Acute Promyelocytic Leukemia, APL, CD13+, M. Lanotte et al. (1991) NB4, a maturation inducible cell line with t(15;17) marker isolated from a human acute promyelocytic leukemia (M3). Blood 77, 1080-1086), (CD13+) and U937 (ATCC CRL-1 593.2, Histiocytic Lymphoma, CD13+ and CD4+); Raji (ATCC CCL-86, Burkitt's Lymphoma) (CD13−, CD20+, CD5−, and CD4−); RPMI-8226 (ATCC CRM-CCL-155, Multiple Myeloma) (CD13−, CD20−, CD5− and CD4−); Karpas-299 (DSMZ ACC-31, Non-Hodgkin's Lymphoma) (CD20−, CD5+, and CD4+); MOLT-4 (ATCC CRL-1 582, Acute Lymphoblastic Leukemia, CD5+). In addition, the two Raji cell (ATCC CCL-86, Burkitt's Lymphoma) clones used in this study Raji-clone #10 (high CD5 expression) and Raji-clone18 (null CD5 expression), were provided by Dr. Juan M. Zapata (Instituto de Investigaciones Biomedicas “Alberto Sols”, CSIC-UAM, Madrid, Spain). Cells were maintained at 37° C., 5% CO 2 and 95% humidity in Dulbecco's Modified Eagle's Medium (DMEM) (for MCF and MDA-MB-231 cells), RPMI-1640 (for SK-BR-3, HCC-1954, NB-4, U937, Raji, RPMI-8226, Karpas-299, MOLT-4, Raji-clone #10 and Raji-clone #18 cells), RPMI-1640+1% ITS (for BT-474 cells) or McCOyS (for SK-OV-3 cells), all media supplemented with 10% Fetal Calf Serum (FCS) and 100 units/mL penicillin and streptomycin.
(§2) For suspension cells: A standard metabolic assay using MTT (3-(4,5-Dimethylthiazol-2-yl)-2,5-diphenyltetrazolium bromide) was adapted for quantitative measurement of cell growth and cytotoxicity, as described in T. Mosmann (1983) Rapid colorimetric assay for cellular growth and survival: Application to proliferation and cytotoxicity assays. J. Immunol. Meth., 65, 55-63. Briefly, MTT solution was added to the cell cultures at a final concentration of 0.5 mg/mL, and incubated for 1 to 4 hours at 37° C. until formazan crystals are formed. Culture medium is carefully removed from the cell cultures and formazan crystals resuspended in 100 μl DMSO. After mixing to assure solubilization, the quantity of formazan (presumably directly proportional to the number of viable cells) is measured by recording changes in absorbance at 570 nm using a plate reading spectrophotometer. Cell survival was expressed as percentage of control, untreated cell survival.
(§3) The IC50 value refers to the concentration of compound inducing a 50% of cell death as compared to the control cell survival.
The in vitro cytotoxic activity of ADC16 along with the parent cytotoxic Compounds 1, 4, and 40, was evaluated against different human cancer cell lines expressing or not the CD4 antigen, including Karpas-299 and U937 (both CD4+); Raji and RPMI-8226 (both CD4−). Standard dose-response (DR) curves for 72 hours were performed.

HCC-1954 cells = assay: In vitro cytotoxicity, SRB assay, 72 h dose-response; assay type: cell-based; conditions: Homo sapiens, HCC1954, 72 h, HER2+; 72 h; read-out: IC50
Text: (§4) Nature Protocols, 1, 1112-1 116.

MDA-MB-231 cells = assay: as above; assay type: cell-based; conditions: Homo sapiens, MDA-MB-231, 72 h, HER2−; 72 h; read-out: IC50
Text: as §4

MCF-7 cells = assay: as above; assay type: cell-based; conditions: Homo sapiens, MCF7, 72 h, HER2−; 72 h; read-out: IC50
Text: as §4

[2] = system: Raji-clone #10 (high CD5 expression); assay: In vitro cytotoxicity, MTT assay, 72 h dose-response; assay type: cell-based; conditions: Homo sapiens
Description: (§5) Briefly, MTT solution was added to the cell cultures at a final concentration of 0.5 mg/mL, and incubated for 1 to 4 hours at 37° C. until formazan crystals are formed. Culture medium is carefully removed from the cell cultures and formazan crystals resuspended in 100 μl DMSO. […] Cell survival was expressed as percentage of control, untreated cell survival.

[3] = system: Raji-clone #18 (null CD5 expression); assay: as above; assay type: cell-based; conditions: Homo sapiens, C#18 (null CD5)
Description: as §5

[4] = system: Raji, RPMI-8226 and Karpas-299 cells; assay: In vitro cytotoxicity, whole CD20 cell panel; conditions: Homo sapiens
Text: as §1, §2, §3
The in vitro cytotoxic activity of ADC12 along with the parent cytotoxic Compounds 1, 4, and 40, was evaluated was assayed against different human cancer cell lines expressing or not the CD20 antigen, including Raji (CD20 positive cells); RPMI-8226 and Karpas-299 (CD20 negative cells). Standard dose-response (DR) curves for 72 hours were performed.

[5] = system: HCC-1954, SK-BR-3, MDA-MB-231 and MCF-7 cells; assay: In vitro cytotoxicity, whole breast cancer cell panel; conditions: for IC50: Homo sapiens
Text: as §1
For adherent cells: A colorimetric assay using sulforhodamine B (SRB) was adapted for quantitative measurement of cell growth and cytotoxicity, as described in V. Vichai and K. Kirtikara (2006) Sulforhodamine B colorimetric assay for cytotoxicity screening. Nature Protocols, 1, 1112-1 116. Briefly, cells were seeded in 96-well microtiter plates and allowed to stand for 24 hours in drug-free medium before treatment with vehicle alone or the indicated compounds for 72 hours. For quantification, cells were washed twice with phosphate buffered saline (PBS), fixed for 15 min in 1% glutaraldehyde solution, rinsed twice with PBS, stained in 0.4% SRB-1% acetic acid solution for 30 min, rinsed several times with 1% acetic acid solution and air-dried. SRB was then extracted in 10 mM trizma base solution and the optical density measured at 490 nm in a microplate spectrophotometer. Cell survival was expressed as percentage of control, untreated cell survival.
as §3
Standard dose-response (DR) curves for 72 hours were performed.

NB-4 cells = assay: In vitro cytotoxicity, MTT assay, 72 h dose-response; assay type: cell-based; conditions: Homo sapiens, CD13+
Description: as §5

[6] = system: NB4, U937, Raji and RPMI-8226 cells; assay: In vitro cytotoxicity, whole CD13 cell panel; conditions: for IC50: Homo sapiens
Text: as §1, §2, §3
The in vitro cytotoxic activity of ADC9 along with the parent cytotoxic Compounds 1 and 4, was evaluated against different human tumor cell lines expressing or not the CD13 receptor, including NB4 and U937 (CD13 positive cells) and Raji and RPMI-8226 (CD13 negative cells). Standard dose-response (DR) curves for 72 hours were performed.

SK-BR-3 cells = assay: In vitro cytotoxicity, SRB assay, 72 h dose-response; assay type: cell-based; conditions: Homo sapiens, SK-BR-3, 72 h, HER2+; 72 h; read-out: IC50
Text: All tumor cell lines used in this study were obtained from the American Type Culture Collection (ATCC), unless otherwise indicated; BT-474 (ATCC HTB-20, Breast Ductal Carcinoma), SK-BR-3 (ATCC HTB-30, Breast Adenocarcinoma) and HCC-1954 (ATCC CRL-2338, Breast Ductal Carcinoma), all HER2+; MDA-MB-231 (ATCC HTB-26, Breast Adenocarcinoma) and MCF-7 (ATCC HTB-22 Breast Adenocarcinoma, pleural effusion), all HER2-; SK-OV-3 (ATCC HTB-77, Ovary Adenocarcinoma), HER2+; NB-4 (Acute Promyelocytic Leukemia, APL, CD13+, M. Lanotte et al. (1991) NB4, a maturation inducible cell line with t(15;17) marker isolated from a human acute promyelocytic leukemia (M3). […] Cells were maintained at 37° C., 5% CO 2 and 95% humidity in Dulbecco's Modified Eagle's Medium (DMEM) (for MCF and MDA-MB-231 cells), RPMI-1640 (for SK-BR-3, HCC-1954, NB-4, U937, Raji, RPMI-8226, Karpas-299, MOLT-4, Raji-clone #10 and Raji-clone #18 cells), RPMI-1640+1% ITS (for BT-474 cells) or McCOyS (for SK-OV-3 cells), all media supplemented with 10% Fetal Calf Serum (FCS) and 100 units/mL penicillin and streptomycin.
For adherent cells: A colorimetric assay using sulforhodamine B (SRB) was adapted for quantitative measurement of cell growth and cytotoxicity, as described in V. Vichai and K. Kirtikara (2006) Sulforhodamine B colorimetric assay for cytotoxicity screening. […] Briefly, cells were seeded in 96-well microtiter plates and allowed to stand for 24 hours in drug-free medium before treatment with vehicle alone or the indicated compounds for 72 hours. For quantification, cells were washed twice with phosphate buffered saline (PBS), fixed for 15 min in 1% glutaraldehyde solution, rinsed twice with PBS, stained in 0.4% SRB-1% acetic acid solution for 30 min, rinsed several times with 1% acetic acid solution and air-dried. SRB was then extracted in 10 mM trizma base solution and the optical density measured at 490 nm in a microplate spectrophotometer. Cell survival was expressed as percentage of control, untreated cell survival.

U937 cells = assay: In vitro cytotoxicity, MTT assay, 72 h dose-response; assay type: cell-based, human; conditions: Homo sapiens, U-937, 72 h, CD13+, CD4+, read-out: IC50
Description: as §5

Raji cells = assay: as above; assay type: cell-based, human; conditions: Homo sapiens, Raji, CD13−, CD20+, CD5−, CD4−, read-out: IC50
Description: as §5

RPMI-8226 cells = assay: as above; assay type: cell-based, human; conditions: Homo sapiens, RPMI-8226, 72 h, CD13−, CD20−, CD5−, CD4−, read-out: IC50
Description: as §5

[7] = read-out: IC50 values across the different cell lines tested (range)
[8] = read-out: mean IC50 value across the whole cell panel
[9] = long maleimide containing linker
[10] = read-out: IC50 values along the different cell lines tested (range), four breast cell lines
[11] = read-out: mean IC50 value across the whole cell panel, four breast cell lines

Row | SMILES | IC50 (HCC-1954 cells) | IC50 (MDA-MB-231 cells) | IC50 (MCF-7 cells) | IC50 [5, 10] | IC50 [5, 11] | IC50 (NB-4 cells) | IC50 [6, 7] | IC50 [6, 8] | IC50 (SK-BR-3 cells) | further results
1 | COC1=CC[C@@H]([C@@H](C)/C=C(C)/C=C\C=C/C(=O)N[C@H](C(=O)N/C=C\C[C@H](C/C=C(\C)Cl)OC(=O)NCCCNC(=O)OCc2ccc(NC(=O)[C@H](CCCNC(N)=O)NC(=O)[C@@H](NC(=O)CCCCCN3C(=O)C=CC3=O)C(C)C)cc2)C(C)(C)C)OC1=O [Compound 12] | 0.0076 µg/mL and 6.02 nM | 0.018 µg/mL and 14.3 nM | 0.0305 µg/mL and 24.2 nM | 0.0076 µg/mL to 0.0305 µg/mL and 6.02 nM to 24.2 nM | 0.0163 µg/mL and 12.9 nM | 0.00445 µg/mL and 3.53 nM | 0.0044 µg/mL to 0.048 µg/mL and 3.5 nM to 38 nM | 0.02 µg/mL and 16 nM | 0.00905 µg/mL and 7.18 nM | IC50 [1, 7]: 0.073 µg/mL to 0.41 µg/mL and 58 nM to 320 nM; IC50 [1, 8]: 0.17 µg/mL and 130 nM; reduction of cytotoxic activity as compared to Compound 4 [1, 9]: ~2 log; reduction of cytotoxic activity as compared to Compound 40 [1, 9]: ~3 log; IC20 ([2]; C#10 (high CD5)): 0.15 µg/mL and 119 nM; IC50 ([2]; C#10 (high CD5)): 0.27 µg/mL and 214 nM; IC50 ([2]; clone #10, CD5 expressing): 0.215 µM; IC20 [3]: 0.2 µg/mL and 159 nM; IC50 [3]: > 792 nM and > 1 µg/mL; IC50 [4, 7]: 0.022 µg/mL to 0.067 µg/mL and 18 nM to 55 nM; IC50 [4, 8]: 0.039 µg/mL and 31 nM; decrease of cytotoxic activity as compared to Compound 4 ([6]; long linker): ~1 log
2 | COC1=CC[C@@H]([C@@H](C)/C=C(C)/C=C\C=C/C(=O)N[C@H](C(=O)N/C=C\C[C@H](C/C=C(\C)Cl)OC(=O)NCCCNC(=O)CCS)C(C)(C)C)OC1=O [Compound 13] | 0.00149 µg/mL and 1.98 nM | 0.00263 µg/mL and 3.5 nM | 0.00243 µg/mL and 3.23 nM | 0.795 to 2.63 ng/mL (≈ 1.06 to 3.5 nM) | 0.00183 µg/mL and 2.44 nM | 0.0017 µg/mL and 2.26 nM | 0.0017 µg/mL to 0.01 µg/mL and 2.7 nM to 14 nM | 0.0043 µg/mL and 5.7 nM | 0.000795 µg/mL and 1.06 nM | decrease of cytotoxic activity as compared to Compound 4 ([5]; thiol containing tail): about 5 fold; reduction of cytotoxic activity as compared to Compound 40 ([6]; thiol containing tail): less than 1 log; IC50 (U937 cells): 0.00285 µg/mL and 3.8 nM; IC50 (Raji cells): 0.0103 µg/mL and 13.7 nM; IC50 (RPMI-8226 cells): 0.0023 µg/mL and 3.06 nM
